US8586108B2, “Extracts of Chenopodium ambrosioides L., the compositions comprising said extracts, the preparing process and application thereof” (Tasly Pharmaceutical Group Co., Ltd, priority 2005, dated 2013)
Marks after values point to notes of the source that are not given here.

What was measured:
[1] = test system: acetic acid-cautery type gastric ulcer; experiment: Effect on gastric ulcer of rats induced by acetic acid cautery; assay type: in vivo, Wistar rats; details: 200 mg/kg i.g. once per day for 13 days; X ± SD, n = 10
Experimental: Eighty Wistar rats weighing between 200-220 g were selected in this experiment, male and female in half, and were randomly divided into 8 groups, 10 rats per group. Drugs were continually administered i.g. with the dosage listed in Table 2 for 13 days, once per day, while the model control group was administered i.g. with the same volume of vegetable oil. The model was established after 2 hours of the third administration. The rats were fasted for 24 hours before model-establishing and anaesthetized by ether, their abdomens were shaved and sterilized. A small incision was cut along the midline of the xiphoid. The stomach was gently pulled out, 10 μL 40% acetic acid was injected underneath the stomach chorion near pyloric gland areas. The stomach was then put back to the abdomen, and the incision was sewed up. Drugs were administered after operation. The rats were fasted for 24 hours after the last administration, and the animals were executed after being anaesthetized by urathane. […] After rinsing the content of stomach with saline, the stomach was fixed with 1% formaldehyde for 10 min, and then the diameters of ulcer points were measured using precise calipers and the ulcer areas were calculated. Ink was injected with a micro-syringe until its level reached the surface of gastric mucous membrane, and the volume of the injected ink was recorded. […]

[2] = test system: gastric ulcers of pyloric ligation type; experiment: Effect on gastric ulcers of pyloric ligation type in rats; assay type: in vivo, Wistar rats; details: 200 mg/kg i.g. once per day for 3 days; 5 grades by Okabe's method; X ± SD, n = 10
Experimental: Eighty Wistar rats weighing about 160 g were selected in this experiment, male and female in half, and were randomly divided into 8 groups, 10 rats per group. Drugs were continually administered i.g. with the dosage listed in Table 3 for 3 days, once per day, while the model control group was administered i.g. with the same volume of vegetable oil. The animals were anaesthetized by ether after 2 hours of the last administration (the rats were fasted for 48 hours before administration), and their abdomens were shaved and sterilized. A small incision was cut below the xiphoid. Their stomach was gently pulled out, and the stomach was then put back to the abdomen after pyloric ligation, and the incision was sewed up. After operation, the rats were abstained from food and water for 6 hours and executed after anaesthesia. The abdomen was cut open, the cardia was ligated, and the whole stomach was taken out and cut open along the greater curvature of stomach. After rinsing the content of stomach with saline, the stomach was fixed with 1% formaldehyde for 10 min, and then the diameters of the ulcer points were measured using precise calipers. Degree of the ulcer was expressed by total area of all ulcer points of each rat and was classified into 5 grades according to Okabe's method as index of ulcer.

What does the source list for `CNC(=C[N+](=O)[O-])NCCSCc1ccc(CN(C)C)o1` [Ranitidine]?
Ulcer area [1]: 8.08 ± 5.72** mm^2; Volumes of injected ink in ulcer region [1]: 2.85 ± 2.63 µL; Index of Ulcer [2]: 0.8 ± 0.6
